Laboratory results published in patent US20070191413A1, “Novel heterocycle-substituted hydroxy-6-phenylphenanthridines and their use as pde4 inhibitors” (Atlanta Pharma AG, priority 2004, published 2007).

molecular target: T1, PDE4B2 (Homo sapiens, UniProt Q07343); assay: Inhibition of PDE4B2 activity in a modified SPA (scintillation proximity assay) test; type: biochemical; conditions: recombinant PDE4B2 (SF21 cell supernatant), [3H]cAMP SPA, 0.5 μM cAMP, 37° C.; value given as a range for the group of listed compounds; read-out: Inhibition of the PDE4 activity, −log IC50 (converted)
T1 construct: made in house; host or cells: SF21 insect cells (baculovirus; virus prepared in SF9 cells)
T1 sequence (Q07343 1-564 isoform Q07343-2): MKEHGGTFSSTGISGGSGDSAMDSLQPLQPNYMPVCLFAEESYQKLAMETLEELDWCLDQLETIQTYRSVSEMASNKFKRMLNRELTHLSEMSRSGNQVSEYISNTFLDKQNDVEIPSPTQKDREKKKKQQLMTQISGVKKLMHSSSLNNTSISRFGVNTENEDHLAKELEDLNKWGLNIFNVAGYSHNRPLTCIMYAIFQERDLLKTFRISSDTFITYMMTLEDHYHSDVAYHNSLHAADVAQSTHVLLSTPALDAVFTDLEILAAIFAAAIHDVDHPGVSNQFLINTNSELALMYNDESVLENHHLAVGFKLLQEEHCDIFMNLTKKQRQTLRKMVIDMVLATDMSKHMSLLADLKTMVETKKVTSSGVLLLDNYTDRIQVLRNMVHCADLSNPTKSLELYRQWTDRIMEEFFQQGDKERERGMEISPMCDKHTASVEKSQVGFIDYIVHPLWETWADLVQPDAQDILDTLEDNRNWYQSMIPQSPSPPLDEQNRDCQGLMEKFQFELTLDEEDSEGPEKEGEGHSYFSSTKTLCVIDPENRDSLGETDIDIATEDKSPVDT
Protocol: The PDE4B2 (GB no. M97515) was a gift of Prof. M. Conti (Stanford University, USA). It was amplified from the original plasmid (pCMV5) via PCR with primers Rb9 (5′-[…]-3′) and Rb10 (5′-[…]-3′) and cloned into the pCR-Bac vector (Invitrogen, Groningen, NL).
The recombinant baculovirus was prepared by means of homologous recombination in SF9 insect cells. The expression plasmid was cotransfected with Bac-N-Blue (Invitrogen, Groningen, NL) or Baculo-Gold DNA (Pharmingen, Hamburg) using a standard protocol (Pharmingen, Hamburg). Wt virus-free recombinant virus supernatant was selected using plaque assay methods. After that, high-titre virus supernatant was prepared by amplifying 3 times. PDE was expressed in SF21 cells by infecting 2×10^6 cells/ml with an MOI (multiplicity of infection) between 1 and 10 in serum-free SF900 medium (Life Technologies, Paisley, UK). The cells were cultured at 28° C. for 48-72 hours, after which they were pelleted for 5-10 min at 1000 g and 4° C.
The SF21 insect cells were resuspended, at a concentration of approx. 10^7 cells/ml, in ice-cold (4° C.) homogenization buffer (20 mM Tris, pH 8.2, containing the following additions: 140 mM NaCl, 3.8 mM KCl, 1 mM EGTA, 1 mM MgCl2, 10 mM P-mercaptoethanol, 2 mM benzamidine, 0.4 mM Pefablock, 10 μM leupeptin, 10 μM pepstatin A, 5 μM trypsin inhibitor) and disrupted by ultrasonication. The homogenate was then centrifuged for 10 min at 1000×g and the supernatant was stored at −80° C. until subsequent use (see below). The protein content was determined by the Bradford method (BioRad, Munich) using BSA as the standard.
PDE4B2 activity is inhibited by the said compounds in a modified SPA (scintillation proximity assay) test, supplied by Amersham Biosciences (see procedural instructions “phosphodiesterase [3H]cAMP SPA enzyme assay, code TRKQ 7090”), carried out in 96-well microtitre plates (MTP's). The test volume is 100 μl and contains 20 mM Tris buffer (pH 7.4), 0.1 mg of BSA (bovine serum albumin)/ml, 5 mM Mg^2+, 0.5 μM cAMP (including about 50,000 cpm of [3H]cAMP), 1 μl of the respective substance dilution in DMSO and sufficient recombinant PDE (1000×g supernatant, see above) to ensure that 10-20% of the CAMP is converted under the said experimental conditions. […] After a preincubation of 5 min at 37° C., the reaction is started by adding the substrate (cAMP) and the assay is incubated for a further 15 min; after that, it is stopped by adding SPA beads (50 μl). In accordance with the manufacturer's instructions, the SPA beads had previously been resuspended in water, but were then diluted 1:3 (v/v) in water; the diluted solution also contains 3 mM IBMX to ensure a complete PDE activity stop. After the beads have been sedimented (>30 min), the MTP's are analyzed in commercially available luminescence detection devices. The corresponding IC50 values of the compounds for the inhibition of PDE activity are determined from the concentration-effect curves by means of non-linear regression.

Row | IC50 | SMILES
1 | 0.724 to 7.41 nM | CCOc1cc2c(cc1OC)C(c1ccc(-n3ccnc3)cc1)=N[C@@H]1CC[C@@H](O)C[C@H]21 (racemic) [Compound 1, (2RS,4aRS,10bRS)-9-Ethoxy-6-(4-imidazol-1 yl-phenyl)-8-methoxy-1,2,3,4,4a,10b-hexahydro-phenanthridin-2-ol]
2 | 0.724 to 7.41 nM | CCOc1cc2c(cc1OC)C(c1ccc(N3CCN(C)CC3)cc1)=N[C@@H]1CC[C@@H](O)C[C@H]21 (racemic) [Compound 2, (2RS,4aRS,10bRS)-9-Ethoxy-8-methoxy-6-[4-(4-methyl-piperazin-1-yl)-phenyl]-1,2,3,4,4a,10b-hexahydro-phenanthridin-2-ol]
3 | 0.724 to 7.41 nM | CCOc1cc2c(cc1OC)C(c1ccc(-c3nc(OC)cc(OC)n3)cc1)=N[C@@H]1CC[C@@H](O)C[C@H]21 (racemic) [Compound 3, (2RS,4aRS,10bRS)-6-[4-(4,6-Dimethoxy-pyrimidin-2-yl)-phenyl]-9-ethoxy-8-methoxy-1,2,3,4,4a,10b-hexahydro-phenanthridin-2-ol]
4 | 0.724 to 7.41 nM | CCOc1cc2c(cc1OC)C(c1ccc(-c3csnn3)cc1)=N[C@@H]1CC[C@@H](O)C[C@H]21 (racemic) [Compound 4, (2RS,4aRS,10bRS)-9-Ethoxy-8-methoxy-6-(4-[1,2,3]thiadiazol-4-yl-phenyl)-1,2,3,4,4a,10b-hexahydro-phenanthridin-2ol]
5 | 0.724 to 7.41 nM | CCOc1cc2c(cc1OC)C(c1ccc(N3CCOCC3)cc1)=N[C@@H]1CC[C@@H](O)C[C@H]21 (racemic) [Compound 5, (2RS,4aRS,10bRS)-9-Ethoxy-8-methoxy-6-(4-morpholin-4-yl-phenyl)-1,2,3,4,4a,10b-hexahydro-phenanthridin-2-ol]
6 | 0.724 to 7.41 nM | CCCn1nnc(-c2ccc(C3=N[C@@H]4CC[C@@H](O)C[C@@H]4c4cc(OC)c(OC)cc43)cc2)n1 (racemic) [Compound 6, (2RS,4aRS,10bRS)-8,9-Dimethoxy-6-[4-(2-propyl-2H-tetrazol-5-yl)-phenyl]-1,2,3,4,4a,10b-hexahydro-phenanthridin-2-ol]
7 | 0.724 to 7.41 nM | CCn1nnc(-c2ccc(C3=N[C@@H]4CC[C@@H](O)C[C@@H]4c4cc(OC)c(OC(F)F)cc43)cc2)n1 (racemic) [Compound 7, (2RS,4aRS,10bRS)-8-(1,1-Difluoro-methoxy)-6-[4-(2ethyl-2H-tetrazol-5-yl)-phenyl]-9-methoxy-1,2,3,4,4a,10b-hexahydro-phenanthridin-2-ol]
8 | 0.724 to 7.41 nM | CCn1nnc(-c2ccc(C3=N[C@@H]4CC[C@@H](O)C[C@@H]4c4cc(OC(F)F)c(OC)cc43)cc2)n1 (racemic) [Compound 8, (2RS,4aRS,10bRS)-9-(1,1-Difluoro-methoxy)-6-[4-(2-ethyl-2H-tetrazol-5-yl)-phenyl]-8-methoxy-1,2,3,4,4a,10b-hexahydro-phenanthridin-2ol]
